In patent US4668620A, “Reducing background interference activity in enzyme-label immunoassays” (Syntex (U.S.A.) Inc., priority 1984, dated 1987):

System: β-galactosidase
Assay: Testing effects of serum on native enzyme activity with DUG
Format: biochemical
Settings: 0.02 mM DUG, 37°, 10 second delay, 30 second read
Description: (2) Testing effects of serum on native enzyme activity with DUG:
The procedure of c (1) above was followed using 50 µl of 1.75×PBS,N3, Mg+0.5% RSA and 50 μ1 β-galactosidase in place of serum and conjugate, respectively, and […] of 0.02mM DUG in 1.75×PBX, N3, Mg +0.5% RSA.
The fluorescence rate was measured at 37° , 10 second delay, 30 second read.

## β-galactosidase: native active enzyme used as label in the immunoassay
Native enzyme in buffer
  ΔF/30 sec., Buffer: 250 ΔF/30 sec.
Native enzyme in serum
  ΔF/30 sec., Serum: 230 ΔF/30 sec.
